Laboratory results taken from patent US11787812B2, “Substituted pyrazolo[4,3-d]pyrimidines and imidazo[5,1 -f][1,2,4]triazines as androgen receptor and phosphodiesterase dual inhibitors” (ILDONG PHARMACEUTICAL CO., LTD., priority 2020, dated 2023).
Read-outs that look alike come from different tables or passages of the source.

Key:
human PDE-5A1 = human PDE-5A1 (Homo sapiens (Human), UniProt O76074); test: Human PDE-5A1 inhibition assay (fluorescence polarization, FAM-cGMP); type: biochemical; conditions: human PDE5A1, 100 nM FAM-cGMP, 60 minutes room temperature
From the text: This example illustrates the in vitro inhibition of human PDE-5A1 by exemplary compounds of this disclosure (e.g., as described herein).
Sildenafil citrate (Catalog no. LKT-S3313, Axxora, San Diego, CA), Vardenafil hydrochloride trihydrate (Catalog no. SML2103, Sigma-Aldrich, St. Louis, MO), PDE Assay Buffer (Catalog no. 60393, BPS bioscience, San Diego, CA), PDE Binding Agent (Catalog no. 60390, BPS bioscience, San Diego, CA) and PDE Binding Agent Diluent (cGMP, Catalog no. 60392, BPS bioscience, San Diego, CA) were used for assays. Test compounds were supplied by Ildong Pharmaceuticals Co., Ltd.
The serial dilution of the compounds was first performed in 100% DMSO with the highest concentration at 1 mM and 0.1 mM. Each intermediate compound dilution (in 100% DMSO) will then get directly diluted 10× fold into assay buffer for 10% DMSO and 5 μL of the dilution was added to a 50 μL reaction so that the final concentration of DMSO is 1% in all reactions.
The enzymatic reactions were conducted at room temperature for 60 minutes in a 50 μL mixture containing PDE assay buffer, 100 nM FAM-cGMP, a PDE enzyme (Table 2) and the test compounds.
After enzymatic reaction, 100 μL of a binding solution (1:100 dilution of the binding agent with the binding agent diluent) was added to each reaction and the reaction was performed at room temperature for 60 minutes.
Fluorescence intensity was measured at excitation of 485 nm and an emission of 528 nm using a Tecan Infinite M1000 microplate reader.
PDE activity assays were performed in duplicate at each concentration. Fluorescence intensity is converted to fluorescence polarization using the Tecan Magellan6 software. The fluorescence polarization (FPt) in absence of the compound in each data set was defined as 100% activity. In the absence of PDE and the compound, the value fluorescent polarization (FPb) in each data set was defined as 0% activity. The percent activity in the presence of compound was calculated according to Equation 1:
[formula] where FP=the fluorescence polarization in the presence of the compound.
The values of % activity versus a series of compound concentrations were then plotted using non-linear regression analysis of Sigmoidal dose-response curve generated with Equation 2:
[formula] where Y=percent activity, B=minimum percent activity, T=maximum percent activity, X=logarithm of compound, and Hill Slope=slope factor or Hill coefficient. The IC50 value was determined by the concentration causing a half-maximal percent activity. Results

androgen receptor (AR) = androgen receptor (AR) (Homo sapiens (Human), UniProt P10275); test: Androgen receptor (AR) reporter assay, antagonist screen activated by R1881; type: cell-based; conditions: AR-UAS-bla GripTite 293 cells, antagonist mode, R1881 at EC80
androgen receptor (AR), sequence (P10275 other isoform, or with tags, fused parts or gaps): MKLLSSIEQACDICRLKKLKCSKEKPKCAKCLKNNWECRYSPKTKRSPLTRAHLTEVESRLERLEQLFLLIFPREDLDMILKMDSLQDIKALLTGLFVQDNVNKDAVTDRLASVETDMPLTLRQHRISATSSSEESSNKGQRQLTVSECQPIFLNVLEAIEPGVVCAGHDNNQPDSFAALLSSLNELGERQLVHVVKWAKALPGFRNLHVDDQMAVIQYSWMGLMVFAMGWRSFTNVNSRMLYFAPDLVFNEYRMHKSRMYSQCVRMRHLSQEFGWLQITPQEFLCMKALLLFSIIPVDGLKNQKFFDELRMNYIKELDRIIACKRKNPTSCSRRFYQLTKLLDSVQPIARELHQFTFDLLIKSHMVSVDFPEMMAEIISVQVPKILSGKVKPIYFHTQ
Method: The protocols and results of this Example were carried out and obtained by Thermofisher Scientific.
Test compounds were received at 1000× (or greater) of the desired starting concentration in 100% DMSO. If compounds were supplied at greater that 1000× concentration, an initial dilution is made in 100% DMSO to bring the compounds to 1000× concentration. The 1000× test compounds were serially diluted (10 point ½-log increments) in 100% DMSO.
The Substrate Loading Solution consists of three Life Technologies reagents: Solution A (10 mM LiveBLAzer™-FRET B/G Substrate), Solution B and Solution C.
Androgen Receptor (AR)—Antagonist Screen, Activated by R1881
AR-UAS-bla GripTite™ 293 cells were thawed and resuspended in Assay Media (DMEM phenol red free, 2% CD-treated FBS, 0.1 mM NEAA, 1 mM Sodium Pyruvate, 100 U/mL/100 μg/mL Pen/Strep) to a concentration of 312,500 cells/mL. 4 μL of a 10× serial dilution of Cyproterone Acetate (control antagonist starting concentration, 3,160 nM) or compounds are added to appropriate wells of a Poly-D-Lysine assay plate. 32 μL of cell suspension was added to the wells and pre-incubated at 37° C./5% CO2 in a humidified incubator with compounds and control antagonist titration for 30 minutes. 4 μL of 10× control agonist R1881 at the pre-determined EC80 concentration was added to wells containing the control antagonist or compounds. The plate was incubated for 16-24 hours at 37° C./5% CO2 in a humidified incubator. 8 μL of 1 μM Substrate Loading Solution is added to each well and the plate was incubated for 2 hours at room temperature. The plate was read on a fluorescence plate reader (Tecan Safire^2).

Human androgen receptors = Human androgen receptors (Homo sapiens (Human), UniProt P10275, T878A); test: Androgen receptor (AR) radioligand binding assay; conditions: read-out: AR IC50
Human androgen receptors, sequence (P10275 whole entry T878A): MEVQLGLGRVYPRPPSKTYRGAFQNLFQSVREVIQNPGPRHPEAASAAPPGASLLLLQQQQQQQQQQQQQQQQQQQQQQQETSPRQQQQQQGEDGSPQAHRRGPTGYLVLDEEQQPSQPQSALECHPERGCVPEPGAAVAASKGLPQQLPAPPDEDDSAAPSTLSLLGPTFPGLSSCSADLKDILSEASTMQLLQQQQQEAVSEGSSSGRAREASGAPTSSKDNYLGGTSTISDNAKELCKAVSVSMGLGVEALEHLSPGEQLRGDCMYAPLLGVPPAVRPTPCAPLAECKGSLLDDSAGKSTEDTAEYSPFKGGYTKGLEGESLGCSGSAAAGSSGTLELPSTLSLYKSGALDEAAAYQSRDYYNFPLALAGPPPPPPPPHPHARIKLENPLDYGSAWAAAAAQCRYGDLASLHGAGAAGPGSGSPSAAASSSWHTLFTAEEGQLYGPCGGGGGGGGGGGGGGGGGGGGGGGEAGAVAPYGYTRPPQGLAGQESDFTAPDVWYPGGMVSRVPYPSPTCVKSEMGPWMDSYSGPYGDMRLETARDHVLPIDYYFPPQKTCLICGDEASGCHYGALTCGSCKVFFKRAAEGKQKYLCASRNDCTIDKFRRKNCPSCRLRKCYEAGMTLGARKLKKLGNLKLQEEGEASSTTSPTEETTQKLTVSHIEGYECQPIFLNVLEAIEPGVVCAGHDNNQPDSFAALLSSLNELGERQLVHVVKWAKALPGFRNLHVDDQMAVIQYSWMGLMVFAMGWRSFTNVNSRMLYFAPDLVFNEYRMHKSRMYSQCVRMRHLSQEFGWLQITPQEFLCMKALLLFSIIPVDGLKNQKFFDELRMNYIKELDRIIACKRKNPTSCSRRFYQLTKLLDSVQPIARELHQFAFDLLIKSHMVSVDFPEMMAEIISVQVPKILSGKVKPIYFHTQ
Method: Methods employed in this study have been adapted from the following literature procedure.
Human androgen receptors obtained from human LNCaP cells are used in modified HEPES buffer pH 7.4. […] Non-specific binding is estimated in the presence of 1 μM testosterone. […] (See, e.g., Traish, A. M et al., Binding of 7α, 17α-dimethyl-19-nortestosterone (Mibolerone) to androgen and progesterone receptors in human and animal tissues. Endocrinology. 118(4): 1327-1333, 1986).
Compounds are screened at 10 μM.
Where presented, IC50 values were determined by a non-linear, least squares regression analysis using MathIQ™ (ID Business Solutions Ltd., UK).

| Compound | IC50 (human PDE-5A1) [nM] | further results |
| --- | --- | --- |
| CCCc1nn(C)c2c(=O)[nH]c(-c3cc(S(=O)(=O)Nc4ccc(C#N)c(C(F)(F)F)c4)ccc3OCC)nc12 [Compound 1, N-(4-cyano-3-(trifluoromethyl)phenyl)-4-ethoxy-3-(1-methyl-7-oxo-3-propyl-6,7-dihydro-1H-pyrazolo[4,3-d]pyrimidin-5-yl)benzenesulfonamide] | ≤ 10 | – |
| CCCc1nn(C)c2c(=O)[nH]c(-c3cc(SC[C@](C)(O)C(=O)Nc4ccc(C#N)c(C(F)(F)F)c4)ccc3OCC)nc12 [Compound 2, (R)-N-(4-cyano-3-(trifluoromethyl)phenyl)-3-((4-ethoxy-3-(1-methyl-7-oxo-3-propyl-6,7-dihydro-1H-pyrazolo[4,3-d]pyrimidin-5-yl)phenyl)thio)-2-hydroxy-2-methylpropanamide] | 10 to 100 | – |
| CCCc1nn(C)c2c(=O)[nH]c(-c3cc(S(=O)(=O)C[C@](C)(O)C(=O)Nc4ccc(C#N)c(C(F)(F)F)c4)ccc3OCC)nc12 [Compound 3, (R)-N-(4-cyano-3-(trifluoromethyl)phenyl)-3-((4-ethoxy-3-(1-methyl-7-oxo-3-propyl-6,7-dihydro-1H-pyrazolo[4,3-d]pyrimidin-5-yl)phenyl)sulfonyl)-2-hydroxy-2-methylpropanamide] | 10 to 100 | – |
| CCCc1nn(C)c2c(=O)[nH]c(-c3cc(S(=O)(=O)NC[C@@](C)(O)C(=O)Nc4ccc(C#N)c(C(F)(F)F)c4)ccc3OCC)nc12 [Compound 4, (R)-N-(4-cyano-3-(trifluoromethyl)phenyl)-3-((4-ethoxy-3-(1-methyl-7-oxo-3-propyl-6,7-dihydro-1H-pyrazolo[4,3-d]pyrimidin-5-yl)phenyl)sulfonamido)-2-hydroxy-2-methylpropanamide] | 10 to 100 | – |
| CCCc1nn(C)c2c(=O)[nH]c(-c3cc(S(=O)(=O)Nc4cnc(C#N)c(C(F)(F)F)c4)ccc3OCC)nc12 [Compound 5, N-(6-cyano-5-(trifluoromethyl)pyridin-3-yl)-4-ethoxy-3-(1-methyl-7-oxo-3-propyl-6,7-dihydro-1H-pyrazolo[4,3-d]pyrimidin-5-yl)benzenesulfonamide] | ≤ 10 | – |
| CCCc1nc(C)c2c(=O)[nH]c(-c3cc(S(=O)(=O)Nc4cnc(C#N)c(C(F)(F)F)c4)ccc3OCC)nn12 [Compound 6, N-(6-cyano-5-(trifluoromethyl)pyridin-3-yl)-4-ethoxy-3-(5-methyl-4-oxo-7-propyl-3,4-dihydroimidazo[5,1-f][1,2,4]triazin-2-yl)benzenesulfonamide] | ≤ 10 | – |
| CCCc1nc(C)c2c(=O)[nH]c(-c3cc(S(=O)(=O)Nc4ccc(C#N)c(C(F)(F)F)c4)ccc3OCC)nn12 [Compound 7, N-(4-cyano-3-(trifluoromethyl)phenyl)-4-ethoxy-3-(5-methyl-4-oxo-7-propyl-3,4-dihydroimidazo[5,1-f][1,2,4]triazin-2-yl)benzenesulfonamide] | ≤ 10 | – |
| CCCc1nn(C)c2c(=O)[nH]c(-c3cc(S(=O)(=O)Nc4ccc(C#N)c(Cl)c4)ccc3OCC)nc12 [Compound 8, N-(3-chloro-4-cyanophenyl)-4-ethoxy-3-(1-methyl-7-oxo-3-propyl-6,7-dihydro-1H-pyrazolo[4,3-d]pyrimidin-5-yl)benzenesulfonamide] | ≤ 10 | – |
| CCCc1nc(C)c2c(=O)[nH]c(-c3cc(S(=O)(=O)Nc4ccc(C#N)c(Cl)c4)ccc3OCC)nn12 [Compound 9, N-(3-chloro-4-cyanophenyl)-4-ethoxy-3-(5-methyl-4-oxo-7-propyl-3,4-dihydroimidazo[5,1-f][1,2,4]triazin-2-yl)benzenesulfonamide] | ≤ 10 | – |
| CCCc1nc(C)c2c(=O)[nH]c(-c3cc(S(=O)(=O)N[C@H]4C[C@H](C(O)C(F)(F)F)N(c5ccc(C#N)c(C(F)(F)F)c5)C4)ccc3OCC)nn12 (stereo partly drawn) [Compound 10, N-((3S,5R)-1-(4-cyano-3-(trifluoromethyl)phenyl)-5-(2,2,2-trifluoro-1-hydroxyethyl)pyrrolidin-3-yl)-4-ethoxy-3-(5-methyl-4-oxo-7-propyl-3,4-dihydroimidazo[5,1-f][1,2,4]triazin-2-yl)benzenesulfonamide] | ≤ 10 | – |
| CCCc1nn(C)c2c(=O)[nH]c(-c3cc(S(=O)(=O)N[C@@H](C)Cn4ccc(-c5ccc(C#N)c(Cl)c5)n4)ccc3OCC)nc12 [Compound 11, (S)-N-(1-(3-(3-chloro-4-cyanophenyl)-1H-pyrazol-1-yl)propan-2-yl)-4-ethoxy-3-(1-methyl-7-oxo-3-propyl-6,7-dihydro-1H-pyrazolo[4,3-d]pyrimidin-5-yl)benzenesulfonamide] | > 100 | – |
| CCCc1nn(C)c2c(=O)[nH]c(-c3cc(N4C(=S)N(c5ccc(C#N)c(C(F)(F)F)c5)C(=O)C4(C)C)ccc3OCC)nc12 [Compound 13, 4-(3-(4-ethoxy-3-(1-methyl-7-oxo-3-propyl-6,7-dihydro-1H-pyrazolo[4,3-d]pyrimidin-5-yl)phenyl)-4,4-dimethyl-5-oxo-2-thioxoimidazolidin-1-yl)-2-(Influoromethyl)benzonilrile] | > 100 | IC50 (androgen receptor (AR)): 500 to 1000 nM; IC50 (Human androgen receptors; receptors from human LNCaP cells, 0.5 nM [3H]Methyltrienolone, 20 hours at 4° C.): > 200 nM |
| CCCc1nc(C)c2c(=O)[nH]c(-c3cc(N4C(=S)N(c5cnc(C#N)c(C(F)(F)F)c5)C(=O)C45CCC5)ccc3OCC)nn12 [Compound 24, 5-(5-(4-ethoxy-3-(5-methyl-4-oxo-7-propyl-3,4-dihydroimidazo[5,1-f][1,2,4]triazin-2-yl)phenyl)-8-oxo-6-thioxo-5,7-diazaspiro[3.4]octan-7-yl)-3-(trifluoromethyl)picolinonitrile] | ≤ 10 | IC50 (Human androgen receptors): 50 to 200 nM |
| CCCc1nc(C)c2c(=O)[nH]c(-c3cc(N4CC(=O)N(c5ccc(C#N)c(C(F)(F)F)c5)C4=S)ccc3OCC)nn12 [Compound 25, 4-(3-(4-ethoxy-3-(5-methyl-4-oxo-7-propyl-3,4-dihydroimidazo[5,1-f][1,2,4]triazin-2-yl)phenyl)-5-oxo-2-thioxoimidazolidin-1-yl)-2-(trifluoromethyl)benzonitrile] | ≤ 10 | IC50 (androgen receptor (AR)): > 100 nM |
| CCCc1nc(C)c2c(=O)[nH]c(-c3cc(NC(=O)Nc4ccc(C#N)c(C(F)(F)F)c4)ccc3OCC)nn12 [Compound 27, 1-(4-cyano-3-(trifluoromethyl)phenyl)-3-(4-ethoxy-3-(5-methyl-4-oxo-7-propyl-3,4-dihydroimidazo[5,1-f][1,2,4]triazin-2-yl)phenyl)urea] | ≤ 10 | IC50 (androgen receptor (AR)): > 100 nM |
| CCCc1nc(C)c2c(=O)[nH]c(-c3cc(NC(=S)Nc4ccc(C#N)c(C(F)(F)F)c4)ccc3OCC)nn12 [Compound 28, 1-(4-cyano-3-(trifluoromethyl)phenyl)-3-(4-ethoxy-3-(5-methyl-4-oxo-7-propyl-3,4-dihydroimidazo [5,1-f][1,2,4]triazin-2-yl)phenyl)thiourea] | ≤ 10 | IC50 (androgen receptor (AR)): > 100 nM |
